According to patent publication US10907212B2, “Inhibitors of cell adhesion” (Regents of the University of Minnesota, priority 2016, dated 2021):
“Also recorded” adds a separate entry of the source. Where no end group is shown, it is not given here.

Assays:
[1] = system: ovarian cancer cell aggregation and spheroid formation; test: Spheroid assay for peptides (visual scale +1 to +5); type: cell-based, human; settings: for Spheroid-24: 24 hrs, Control = 2; for Spheroid-24 / Spheroid-48: visual scale of +1 to +5; for Spheroid-48: 48 hrs, Control = 4; for spheroid size relative to the control (in words): at 24 hrs
Description: Spheroids were formed from the NIH:OVCAR5 cell lines described above using the liquid overlay method. One milliliter of a single cell suspension was seeded at a concentration of 50,000 cells/ml in OptiMEM® media, into 24-well tissue culture plates coated with 0.5% Seakem agarose (in complete RPMI-1640). Plates were incubated at 37° C. in a humidified incubator with 5% CO2. At various time points up to 5 days, the plates were removed from the incubator and the spheroids were photographed with a Nikon CoolPix digital camera mounted on an Olympus CK2 inverted microscope with a 4× objective. The size of the spheroids was determined using the measure tool in Adobe Photoshop. The largest spheroids were quantified (20-90 spheroids/well), in a minimum of 8 wells, for a total of >300 spheroids per cell type.
The clinical relevance is that by blocking the formation of spheroids, the cells will be more sensitive to chemotherapy (which targets the single cells that proliferate more rapidly than spheroids).
The spheroid assay for peptides 1-30 were scored using a visual scale of +1 to +5. The controls were scored at +2 (24 hrs) and +4 (48 hrs). […] It may be harder to visually assess the size at 24 hours, since the spheroids are relatively small, but and perhaps some of the peptides are affecting cell division, and that is why the spheroids are smaller than the controls at 48 hours, but not 24 hrs (this can be easily assayed with an MTT assay).

[2] = system: nectin 4 protein on NIH:OVCAR-5 cells; test: Effect of peptides on anti-Nectin-4 antibody binding to cells as determined by flow cytometry; type: cell-based, human; settings: for IgG MFI: IgG control primary antibody; for nectin-4 antibody binding compared to untreated control cells (in words): flow cytometry; for Flow binding: summary table, Nectin-4 antibody binding relative to control = 100
Description: Confluent monolayers of cells were detached from 75 cm^2 tissue culture flasks using Accutase cell dissociation buffer (Innovative Cell Technologies, San Diego, Calif.), washed, and labeled with mouse IgG or mAbs against Nectin-4 or Nectin-1 (2.5 μg/10^6 cells) in Flow Buffer [phosphate buffered saline (PBS) containing 2.5% newborn calf serum and 0.02% sodium azide] for 30 min at 4° C.. Cells were washed and incubated with goat anti-mouse IgG F(ab′)2 (Jackson ImmunoResearch, West Grove, Pa.), then washed again and incubated with streptavidin-allophycocyanin conjugate (Jackson ImmunoResearch, West Grove, Pa.) for 30 min each. Cells were washed and fixed in Flow Buffer containing 1% formaldehyde and analyzed in the University of Minnesota Flow Cytometry Resource with a BD Accuri™ C6 flow cytometer (BD Biosciences, San Jose, Calif.) using the Accuri™ software.
Briefly, NIH:OVCAR-5 cells that natively express a moderate amount of nectin 4 protein were incubated for 30 minutes in 150 μg/mL of soluble peptide in DMSO. After incubation, the cells were washed, and then triple antibody stained using mouse anti-nectin 4 (or IgG control) primary antibody, biotinylated goat anti-mouse secondary antibody, and streptavidin APC tertiary antibody. Finally, utilizing the University of Minnesota flow core's Accuri C6 flow cytometer, the relative antibody binding affinity for control and peptide-treated samples was quantitated and compared. Data was collected for each of the 57 peptides generated.

[3] = Run One, 150 μg/mL peptide, 30 minutes, Control 1 = 15,015
[4] = Run One, 150 μg/mL peptide, 30 minutes, Control 1 = 1,670
[5] = Run One, antibody binding relative to Control 1 = 100.00
[6] = Run Three, 150 μg/mL peptide, 30 minutes, Control 3 = 13,070.20
[7] = Run Three, antibody binding relative to Control 3 = 100.00
[8] = Run Four, 150 μg/mL peptide, 30 minutes, Control 4 = 9,631.58
[9] = Run Four, Control 4 = 9.387504873
[10] = Run Four, antibody binding relative to Control 4 = 100
[11] = Run Two, 150 μg/mL peptide, 30 minutes, Control 2 = 49,491
[12] = Run Two, antibody binding relative to Control 2 = 100.00

Substance	Spheroid-24 [1]	Spheroid-48 [1]	N4 MFI [2, 3]	IgG MFI [2, 4]	N4 MFI/IgG MFI ([2]; Run One, Control 1 = 8.99)	nectin-4 antibody binding, percent of control [2, 5]	nectin-4 antibody binding compared to untreated control cells (in words) ([2]; 150 μg/mL peptide)	Flow binding [2] [%]	other results
EVKGTTSSRSFKHS-NH2 (listed as Homo sapiens) [Peptide 14]	1	2	13,217	3,125	4.23	75.62			
FANPLPSVKITQVTW-NH2 (listed as Homo sapiens) [Peptide 32]		2					reduction in nectin-4 antibody binding	13	N4 MFI [2, 6]: 2,542.31; N4 MFI/IgG MFI ([2]; Run Three, Control 3 = 9.83): 2.47; IgG MFI ([2]; Run Three, Control 3 = 1330): 1029; nectin-4 antibody binding, percent of control [2, 7]: 12.89
GQDDKVLVATCTSANG-NH2 (listed as Homo sapiens) [Peptide 41]	3								N4 MFI [2, 8]: 9,040.73; N4 MFI/IgG MFI [2, 9]: 8.302; IgG MFI ([2]; Run Four, Control 4 = 1,026): 1,089; nectin-4 antibody binding, percent of control [2, 10]: 92.4
HGRRAGPVPTA-NH2 (listed as Homo sapiens) [Peptide 56]		3							N4 MFI ([2]; Run Five, 150 μg/mL peptide, 30 minutes, Control 5 = 17,768.90): 21,060.14; N4 MFI/IgG MFI ([2]; Run Five, Control 5 = 2.142155332): 2.035; IgG MFI ([2]; Run Five, Control 5 = 8,294.87): 10,346.61; nectin-4 antibody binding, percent of control ([2]; Run Five, antibody binding relative to Control 5 = 100): 113.1
HSQVVQVNDSMYGF-NH2 (listed as Homo sapiens) [Peptide 30]		3					erroneous/outlier due to solubility issues	321	N4 MFI [2, 11]: 205,442; N4 MFI/IgG MFI ([2]; Run Two, Control 2 = 9.46): 3.24; IgG MFI ([2]; Run Two, Control 2 = 5,233): 63,394; nectin-4 antibody binding, percent of control [2, 12]: 320.95
HSRSAAVTSEFHLV-NH2 (listed as Homo sapiens) [Peptide 15]	1	2	7,980	2,158	3.70	43.63	reduction in nectin-4 antibody binding; also recorded: reduced antibody binding	44	spheroid size (in words) [1]: reduced spheroid size
ICEFATFPTGNRES-NH2 (listed as Homo sapiens) [Peptide 38]	1	3							N4 MFI [2, 6]: 12,128.26; N4 MFI/IgG MFI ([2]; Run Three, Control 3 = 9.83): 7.73; IgG MFI ([2]; Run Three, Control 3 = 1330): 1568; nectin-4 antibody binding, percent of control [2, 7]: 89.95
LPSLNPGPALEEGQ-NH2 (listed as Homo sapiens) [Peptide 11]	~1?	3	15,211	2,268	6.71	96.99			
LRNAVQADEGEYEC-NH2 (listed as Homo sapiens) [Peptide 8]	3		20,015	1,670	11.99	137.47	increased the binding of the Nectin-4 antibody to cells	137	spheroid size relative to the control (in words) [1]: slightly larger spheroid size
LVPSREAHQQSLAC-NH2 (listed as Homo sapiens) [Peptide 45]	3								N4 MFI [2, 8]: 9,868.29; N4 MFI/IgG MFI [2, 9]: 9.646; IgG MFI ([2]; Run Four, Control 4 = 1,026): 1023; nectin-4 antibody binding, percent of control [2, 10]: 102.8
LVPSRSMNGQPLTC-NH2 (listed as Homo sapiens) [Peptide 16]	1	1	12,161	2,432	5.00	72.90			
LWHIGREGAMLKCL-NH2 (listed as Homo sapiens) [Peptide 20]		2	17,636	1,890	9.33	117.99	increased binding of nectin-4 antibody	118	
NPNGTVTVISRYRLV-NH2 (listed as Homo sapiens) [Peptide 44]	3								N4 MFI [2, 8]: 7,802.22; N4 MFI/IgG MFI [2, 9]: 8.481; IgG MFI ([2]; Run Four, Control 4 = 1,026): 920; nectin-4 antibody binding, percent of control [2, 10]: 79.97
PEVTIEGFDGNW-NH2 (listed as Homo sapiens) [Peptide 48]	1	2							N4 MFI [2, 8]: 10,595.37; N4 MFI/IgG MFI [2, 9]: 9.911; IgG MFI ([2]; Run Four, Control 4 = 1,026): 1069; nectin-4 antibody binding, percent of control [2, 10]: 110.7
PPPRNPLDGSVLLR-NH2 (listed as Homo sapiens) [Peptide 7]	3		18,342	1,255	14.62	128.04	increased the binding of the Nectin-4 antibody to cells	128	spheroid size relative to the control (in words) [1]: slightly larger spheroid size
QARLRLRVLVPPLP-NH2 (listed as Homo sapiens) [Peptide 10]	1	2	4,119	2,452	1.68	12.49	reduction in nectin-4 antibody binding; also recorded: reduced antibody binding	12.50	spheroid size (in words) [1]: reduced spheroid size
RLKGEAEYQEIRNP-NH2 (listed as Homo sapiens) [Peptide 43]	5								N4 MFI [2, 8]: 9,677.93; N4 MFI/IgG MFI [2, 9]: 7.399; IgG MFI ([2]; Run Four, Control 4 = 1,026): 1308; nectin-4 antibody binding, percent of control [2, 10]: 97.26
RPSFTDGTIRLS-NH2 (listed as Homo sapiens) [Peptide 36]		3							N4 MFI [2, 6]: 13,633.18; N4 MFI/IgG MFI ([2]; Run Three, Control 3 = 9.83): 7.80; IgG MFI ([2]; Run Three, Control 3 = 1330): 1748; nectin-4 antibody binding, percent of control [2, 7]: 101.23
RVDGDTLGFPPLTT-NH2 (listed as Homo sapiens) [Peptide 23]	1	2					reduction in nectin-4 antibody binding	35	N4 MFI [2, 11]: 18,902; N4 MFI/IgG MFI ([2]; Run Two, Control 2 = 9.46): 5.66; IgG MFI ([2]; Run Two, Control 2 = 5,233): 3,342; nectin-4 antibody binding, percent of control [2, 12]: 35.16
SGKQVDLVSAS-NH2 (listed as Homo sapiens) [Peptide 27]	1	2					reduction in nectin-4 antibody binding	42	N4 MFI [2, 11]: 22,824; N4 MFI/IgG MFI ([2]; Run Two, Control 2 = 9.46): 5.57; IgG MFI ([2]; Run Two, Control 2 = 5,233): 4,099; nectin-4 antibody binding, percent of control [2, 12]: 42.31
SNEFSSRDSQVTVD-NH2 (listed as Homo sapiens) [Peptide 25]	2						reduction in nectin-4 antibody binding	9.40	N4 MFI [2, 11]: 7,756; N4 MFI/IgG MFI ([2]; Run Two, Control 2 = 9.46): 2.16; IgG MFI ([2]; Run Two, Control 2 = 5,233): 3,584; nectin-4 antibody binding, percent of control [2, 12]: 9.43
